Experimental data from patent publication US20220380368A1, “SPIROCYCLIC ANDROGEN RECEPTOR PROTEIN DEGRADERS” (THE REGENTS OF THE UNIVERSITY OF MICHIGAN, priority 2019, published 2022).

Target: T1, AR protein (Homo sapiens, UniProt P10275)
T1 construct: endogenous in cells; host or cells: VCaP
T1 sequence (P10275 1-920): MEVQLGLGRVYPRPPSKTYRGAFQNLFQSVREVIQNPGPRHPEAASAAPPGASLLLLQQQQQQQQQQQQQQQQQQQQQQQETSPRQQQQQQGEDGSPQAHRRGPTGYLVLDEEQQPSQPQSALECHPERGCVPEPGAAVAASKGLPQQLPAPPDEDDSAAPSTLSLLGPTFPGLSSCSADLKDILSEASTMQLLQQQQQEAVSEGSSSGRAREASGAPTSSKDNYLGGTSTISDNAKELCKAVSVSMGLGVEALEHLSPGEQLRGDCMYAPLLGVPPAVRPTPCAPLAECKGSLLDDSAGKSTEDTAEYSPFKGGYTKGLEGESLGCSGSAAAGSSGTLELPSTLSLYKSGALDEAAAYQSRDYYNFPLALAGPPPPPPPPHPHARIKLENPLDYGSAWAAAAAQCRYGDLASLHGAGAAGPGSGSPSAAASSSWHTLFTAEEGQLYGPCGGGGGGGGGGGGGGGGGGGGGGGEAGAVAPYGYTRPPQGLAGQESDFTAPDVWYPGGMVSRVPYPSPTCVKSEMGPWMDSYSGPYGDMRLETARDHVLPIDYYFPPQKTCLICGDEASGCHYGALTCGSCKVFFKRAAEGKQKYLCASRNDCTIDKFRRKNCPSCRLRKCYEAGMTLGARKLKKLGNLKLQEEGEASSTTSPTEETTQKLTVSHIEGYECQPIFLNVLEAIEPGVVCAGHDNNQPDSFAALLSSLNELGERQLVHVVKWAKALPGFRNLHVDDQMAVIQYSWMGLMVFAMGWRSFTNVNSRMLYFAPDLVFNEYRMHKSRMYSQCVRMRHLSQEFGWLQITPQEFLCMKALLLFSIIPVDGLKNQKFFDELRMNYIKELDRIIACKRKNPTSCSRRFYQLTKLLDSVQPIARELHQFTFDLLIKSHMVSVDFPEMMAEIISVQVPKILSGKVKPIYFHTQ
Test: Western blotting analysis of AR protein levels in VCaP cells, band quantification, DC50/DC90
Type: cell-based
Details: VCaP cells, Table 6; read-out: VCaP DC50
Method: The appropriate cell line, e.g., prostate cancer LNCaP, Vcap, or 22RV1 cell line, was treated with Compounds of the Disclosure as indicated. The treated cells were lysed with RIPA buffer. […] GAPDH was used as a loading control.
Bands were quantified with ImageJ software. The relative numbers of each band obtained from normalization with its corresponding GAPDH level were compared with Prism 8 software. The DC50 values were produced from Prism 8, and the DC90 values were calculated with an equation=Bottom+(Top−Bottom)/(1+10^((Log EC50−X)*HillSlope) based on DC50 and Hillslope values.

Question: `C[C@H]1CC2(CCN(c3ccc(C(=O)N4CC[C@@H](N5CCN(c6cc7c(cc6F)C(=O)N(C6CCC(=O)NC6=O)C7=O)CC5)C4)cc3)CC2)CN1c1ccc(C#N)c(Cl)c1` (stereo partly drawn) [Cpd. No. 517, 2-chloro-4-((3S)-8-(4-((3R)-3-(4-(2-(2,6-dioxopiperidin-3-yl)-6-fluoro-1,3-dioxoisoindolin-5-yl)piperazin-1-yl)pyrrolidine-1-carbonyl)phenyl)-3-methyl-2,8-diazaspiro[4.5]decan-2-yl)benzonitrile] was tested. Which DC50 did it give?
Answer: Its DC50 is 1 to 10 nM.

Question: How did the DC50 turn out when `C[C@H]1CC2(CCN(c3ncc(C(=O)N4CCN(C5CCN(c6ccc7c(c6)C(=O)N(C6CCC(=O)NC6=O)C7=O)CC5)CC4)cn3)CC2)CN1c1ccc(C#N)c(Cl)c1` (stereo partly drawn) [Cpd. No. 513, 2-chloro-4-((3S)-8-(5-(4-(1-(2-(2,6-dioxopiperidin-3-yl)-1,3-dioxoisoindolin-5-yl)piperidin-4-yl)piperazine-1-carbonyl)pyrimidin-2-yl)-3-methyl-2,8-diazaspiro[4.5]decan-2-yl)benzonitrile] was run?
Answer: The DC50 was < 1 nM.

Question: With `C[C@H]1CC2(CCN(c3ccc(C(=O)N4CC(N5CCN(c6cc7c(cc6F)C(=O)N(C6CCC(=O)NC6=O)C7=O)CC5)C4)nn3)CC2)CN1c1ccc(C#N)c(Cl)c1` (stereo partly drawn) [Cpd. No. 537, 2-chloro-4-((3S)-8-(6-(3-(4-(2-(2,6-dioxopiperidin-3-yl)-6-fluoro-1,3-dioxoisoindolin-5-yl)piperazin-1-yl)azetidine-1-carbonyl)pyridazin-3-yl)-3-methyl-2,8-diazaspiro[4.5]decan-2-yl)benzonitrile] as the molecule, how does the DC50 read?
Answer: The DC50 was 1 to 10 nM.

Question: For `C[C@H]1CC2(CCN(c3ccc(C(=O)N4CCN(C5CCN(c6ccc7c(c6)C(=O)N(C6CCC(=O)NC6=O)C7=O)CC5)CC4)cn3)CC2)CN1c1ccc(C#N)c(Cl)c1` (stereo partly drawn) [Cpd. No. 508, 2-chloro-4-((3S)-8-(5-(4-(1-(2-(2,6-dioxopiperidin-3-yl)-1,3-dioxoisoindolin-5-yl)piperidin-4-yl)piperazine-1-carbonyl)pyridin-2-yl)-3-methyl-2,8-diazaspiro[4.5]decan-2-yl)benzonitrile], which DC50 is on record?
Answer: The DC50 was < 1 nM.

Question: Which DC50 does the source give for `C[C@H]1CC2(CCN(c3ccc(C(=O)N4CCN(CC5CN(c6cc7c(cc6F)C(=O)N(C6CCC(=O)NC6=O)C7=O)C5)CC4)nn3)CC2)CN1c1ccc(C#N)c(Cl)c1` (stereo partly drawn) [Cpd. No. 503, 2-chloro-4-((3S)-8-(6-(4-((1-(2-(2,6-dioxopiperidin-3-yl)-6-fluoro-1,3-dioxoisoindolin-5-yl)azetidin-3-yl)methyl)piperazine-1-carbonyl)pyridazin-3-yl)-3-methyl-2,8-diazaspiro[4.5]decan-2-yl)benzonitrile] here?
Answer: The DC50 was 1 to 10 nM.

Question: For `C[C@H]1CC2(CCN(c3ccc(C(=O)N4CCN(CC5CN(c6cc7c(cc6F)C(=O)N(C6CCC(=O)NC6=O)C7=O)C5)CC4)c(F)c3)CC2)CN1c1ccc(C#N)c(Cl)c1` (stereo partly drawn) [Cpd. No. 531, 2-chloro-4-((3S)-8-(4-(4-((1-(2-(2,6-dioxopiperidin-3-yl)-6-fluoro-1,3-dioxoisoindolin-5-yl)azetidin-3-yl)methyl)piperazine-1-carbonyl)-3-fluorophenyl)-3-methyl-2,8-diazaspiro[4.5]decan-2-yl)benzonitrile], which DC50 is on record?
Answer: Its DC50 is 1 to 10 nM.

Question: `C[C@H]1CC2(CCN(c3ccc(C(=O)N4CCN(C5CN(c6cc7c(cc6F)C(=O)N(C6CCC(=O)NC6=O)C7=O)C5)CC4)nn3)CC2)CN1c1ccc(C#N)c(Cl)c1` (stereo partly drawn) [Cpd. No. 501, 2-chloro-4-((3S)-8-(6-(4-(1-(2-(2,6-dioxopiperidin-3-yl)-6-fluoro-1,3-dioxoisoindolin-5-yl)azetidin-3-yl)piperazine-1-carbonyl)pyridazin-3-yl)-3-methyl-2,8-diazaspiro[4.5]decan-2-yl)benzonitrile] was tested. Which DC50 did it give?
Answer: Its DC50 is < 1 nM.

Question: Which DC50 does the source give for `C[C@H]1CC2(CCN(c3ccc(C(=O)N4CCC(CN5Cc6cc7c(cc6C5)C(=O)N(C5CCC(=O)NC5=O)C7=O)CC4)c(F)c3)CC2)CN1c1ccc(C#N)c(Cl)c1` (stereo partly drawn) [Cpd. No. 534, 2-chloro-4-((3S)-8-(4-(4-((6-(2,6-dioxopiperidin-3-yl)-5,7-dioxo-3,5,6,7-tetrahydropyrrolo[3,4-f]isoindol-2(1H)-yl)methyl)piperidine-1-carbonyl)-3-fluorophenyl)-3-methyl-2,8-diazaspiro[4.5]decan-2-yl)benzonitrile] here?
Answer: The DC50 was < 1 nM.

Question: `C[C@H]1CC2(CCN(c3ncc(C(=O)N4CCN(C5CN(c6ccc7c(c6)C(=O)N(C6CCC(=O)NC6=O)C7=O)C5)CC4)cn3)CC2)CN1c1ccc(C#N)c(Cl)c1` (stereo partly drawn) [Cpd. No. 512, 2-chloro-4-((3S)-8-(5-(4-(1-(2-(2,6-dioxopiperidin-3-yl)-1,3-dioxoisoindolin-5-yl)azetidin-3-yl)piperazine-1-carbonyl)pyrimidin-2-yl)-3-methyl-2,8-diazaspiro[4.5]decan-2-yl)benzonitrile] was tested. Which DC50 did it give?
Answer: Its DC50 is < 1 nM.

Question: How did the DC50 turn out when `C[C@H]1CC2(CCN(c3ncc(C(=O)N4CCC(CN5Cc6cc7c(cc6C5)C(=O)N(C5CCC(=O)NC5=O)C7=O)CC4)cn3)CC2)CN1c1ccc(C#N)c(Cl)c1` (stereo partly drawn) [Cpd. No. 526, 2-chloro-4-((3S)-8-(5-(4-((6-(2,6-dioxopiperidin-3-yl)-5,7-dioxo-3,5,6,7-tetrahydropyrrolo[3,4-f]isoindol-2(1H)-yl)methyl)piperidine-1-carbonyl)pyrimidin-2-yl)-3-methyl-2,8-diazaspiro[4.5]decan-2-yl)benzonitrile] was run?
Answer: Its DC50 is < 1 nM.

Question: `C[C@H]1CC2(CCN(c3ccc(C(=O)N4CCN(C5CCN(c6ccc7c(c6)C(=O)N(C6CCC(=O)NC6=O)C7=O)CC5)CC4)cc3F)CC2)CN1c1ccc(C#N)c(Cl)c1` (stereo partly drawn) [Cpd. No. 519, 2-chloro-4-((3S)-8-(4-(4-(1-(2-(2,6-dioxopiperidin-3-yl)-1,3-dioxoisoindolin-5-yl)piperidin-4-yl)piperazine-1-carbonyl)-2-fluorophenyl)-3-methyl-2,8-diazaspiro[4.5]decan-2-yl)benzonitrile] was tested. Which DC50 did it give?
Answer: The DC50 was < 1 nM.

Question: Which DC50 does the source give for `C[C@H]1CC2(CCN(c3ccc(C(=O)N4CCN(C5CN(c6cc7c(cc6F)C(=O)N(C6CCC(=O)NC6=O)C7=O)C5)CC4)c(F)c3)CC2)CN1c1ccc(C#N)c(Cl)c1` (stereo partly drawn) [Cpd. No. 530, 2-chloro-4-((3S)-8-(4-(4-(1-(2-(2,6-dioxopiperidin-3-yl)-6-fluoro-1,3-dioxoisoindolin-5-yl)azetidin-3-yl)piperazine-1-carbonyl)-3-fluorophenyl)-3-methyl-2,8-diazaspiro[4.5]decan-2-yl)benzonitrile] here?
Answer: Its DC50 is < 1 nM.

Question: Which DC50 does the source give for `C[C@H]1CC2(CCN(c3ncc(C(=O)N4CCC(N5CCN(c6ccc7c(c6)C(=O)N(C6CCC(=O)NC6=O)C7=O)CC5)CC4)cn3)CC2)CN1c1ccc(C#N)c(Cl)c1` (stereo partly drawn) [Cpd. No. 514, 2-chloro-4-((3S)-8-(5-(4-(4-(2-(2,6-dioxopiperidin-3-yl)-1,3-dioxoisoindolin-5-yl)piperazin-1-yl)piperidine-1-carbonyl)pyrimidin-2-yl)-3-methyl-2,8-diazaspiro[4.5]decan-2-yl)benzonitrile] here?
Answer: The DC50 was < 1 nM.

Same assay, conditions: read-out: VCaP DC50; VCaP cells, Table 6

Question: How did the DC50 turn out when `C[C@H]1CC2(CCN(c3ccc(C(=O)N4CCN(C5CN(c6cc7c(cc6F)C(=O)N(C6CCC(=O)NC6=O)C7=O)C5)CC4)cn3)CC2)CN1c1ccc(C#N)c(Cl)c1` (stereo partly drawn) [Cpd. No. 505, 2-chloro-4-((3S)-8-(5-(4-(1-(2-(2,6-dioxopiperidin-3-yl)-6-fluoro-1,3-dioxoisoindolin-5-yl)azetidin-3-yl)piperazine-1-carbonyl)pyridin-2-yl)-3-methyl-2,8-diazaspiro[4.5]decan-2-yl)benzonitrile] was run?
Answer: Its DC50 is < 1 nM.
